Results taken from patent US20050159432A1, “Short form c-Maf transcription factor antagonists for treatment of glaucoma” (Alcon, Inc., priority 2003, published 2005).

Experiments:
[1] = tested on: short-form c-Maf gene expression; assay: QPCR analysis of short-form c-Maf gene expression in TM70A trabecular meshwork cells; assay type: cell-based, Human; settings: 10^−7 M dexamethasone, c-Maf/18S normalized ratio, n=3
Text: Human trabecular meshwork (TM) cells were derived from donor eyes (Central Florida Lions Eye and Tissue Bank, Tampa, Fla.) and cultured as previously described (Steely, et al. (1992), Invest Ophthalmol Vis Sci 33(7): 2242-50; Wilson, et al. (1993), Curr Eye Res 12(9): 783-93; Clark, et al. (1994), Invest Ophthalmol Vis Sci 35(1): 281-94.; Dickerson, et al. (1998), Exp Eye Res 66(6): 731-8; Wang, et al. (2001), Mol Vis 7: 89-94). TM cells were derived from pools of four each of either normal or glaucoma cell lines. Total RNA was isolated from TM cells from each pool using TRIZOL® reagent according to the manufacturer's instructions (Invitrogen, Carlsbad, Calif.). […]
Measurement of short form c-Maf gene expression was performed by quantitative real-time RT-PCR (QPCR) using an ABI PRISM® 7700 Sequence Detection System (Applied Biosystems) essentially as described Shepard, et al. (2001) Invest Ophthalmol Vis Sci 42(13): 3173-81. […] The “Minor Groove Binding Non-Fluorescent Quencher” was bound to the 3′ end of the probe and is used to quench the fluorescence from 6FAM. […] Quantification of relative cDNA concentrations was done using the relative standard curve method as described in PE Biosystems User Bulletin #2, ABI PRISM® 7700 Sequence Detection System, 2001 (Applied BioSystems). […]

[2] = tested on: short-form c-Maf gene expression; assay: QPCR analysis of short-form c-Maf gene expression in SGTM2697 glaucomatous trabecular meshwork cells; assay type: cell-based, Human
Text: Human trabecular meshwork (TM) cells were derived from donor eyes (Central Florida Lions Eye and Tissue Bank, Tampa, Fla.) and cultured as previously described (Steely, et al. (1992), Invest Ophthalmol Vis Sci 33(7): 2242-50; Wilson, et al. (1993), Curr Eye Res 12(9): 783-93; Clark, et al. (1994), Invest Ophthalmol Vis Sci 35(1): 281-94.; Dickerson, et al. (1998), Exp Eye Res 66(6): 731-8; Wang, et al. (2001), Mol Vis 7: 89-94). TM cells were derived from pools of four each of either normal or glaucoma cell lines. Total RNA was isolated from TM cells from each pool using TRIZOL® reagent according to the manufacturer's instructions (Invitrogen, Carlsbad, Calif.).
First strand cDNA was generated from 1 μg of total RNA using random hexamers and TAQMAN® Reverse Transcription reagents according to the manufacturer's instructions (Applied Biosystems, Foster City, Calif.). The 100 μl reaction was subsequently diluted 20-fold to achieve an effective cDNA concentration of 0.5 ng/μl.
Measurement of short form c-Maf gene expression was performed by quantitative real-time RT-PCR (QPCR) using an ABI PRISM® 7700 Sequence Detection System (Applied Biosystems) essentially as described Shepard, et al. (2001) Invest Ophthalmol Vis Sci 42(13): 3173-81. Primers for short form-specific c-Maf amplification (Genbank accession #AF055376) were designed using PRIMER EXPRESS® software (Applied Biosystems). Forward and reverse primer sequences were […], SEQ ID NO:1, (nucleotides 3773-3799) and […], SEQ ID NO:2, (nucleotides 3823-3847), and the minor groove binding probe sequence was CTGCAAGCATATAATACA, SEQ ID NO:3, (nucleotides 3801-3818). 6FAM was bound to the 5′ end of the minor groove binding probe and refers to the type of fluorophore attached to the TAQMAN® probe. Other choices for the fluorophore are the JOE™ Fluorophore (Applied Biosystems) or VIC™ fluorophore (Applied Biosystems). The “Minor Groove Binding Non-Fluorescent Quencher” was bound to the 3′ end of the probe and is used to quench the fluorescence from 6FAM. […] Quantification of relative cDNA concentrations was done using the relative standard curve method as described in PE Biosystems User Bulletin #2, ABI PRISM® 7700 Sequence Detection System, 2001 (Applied BioSystems). […]
Short form c-Maf gene expression was analyzed using the Affymetrix U133A GENECHIP® analysis described in Example 2 of a pool of glaucomatous trabecular meshwork cells designated SGTM2697. […]
The effect of small molecule inhibition on short-form c-Maf gene expression was analyzed by QPCR analysis as described in Example 2 in glaucomatous trabecular meshwork (Passage 6) cells designated SGTM2697. […]

In the case of `C[C@@H]1C[C@H]2[C@@H]3CCC4=CC(=O)C=C[C@]4(C)[C@@]3(F)[C@@H](O)C[C@]2(C)[C@@]1(O)C(=O)CO` [dexamethasone], the “short form c-Maf upregulated compared to control, day one” value ([1]; 1 day) is reported as 2.1 fold and the “short form c-Maf upregulated compared to control, day 14” value ([1]; 14 days) is reported as 3.2 fold.

`CC(C)[C@H](CO)Nc1nc(Nc2cccc(Cl)c2)c2ncn(C(C)C)c2n1` [purvalanol A, 2-(1R-Isopropyl-2-hydroxyethylamino)-6-(3-chloroanilino)-9-isopropylpurine] was tested, and the “effect on TGFβ2-induced c-Maf expression” value ([2]; SGTM2697 (Passage 6) cells, co-treatment with 5 ng/ml TGFβ2, 16 hours, n=6) was “completely abolished” and the “basal c-Maf levels downregulated” value ([2]; SGTM2697 (Passage 6) cells, without TGFβ2, 16 hours, n=6) was 2.6 fold.

B1: TGFβ2: transforming growth factor beta 2, used for induction of gene expression (protein, UniProt P61812 303-414, looked up)
Transforming growth factor …: ALDAAYCFRNVQDNCCLRPLYIDFKRDLGWKWIHEPKGYNANFCAGACPYLWSSDTQHSRVLSLYNTINPEASASPCCVSQDLEPLTILYYIGKTPKIEQLSNMIVKSCKCS
In the case of B1, the “short-form c-Maf upregulated by TGFβ2” value ([2]; SGTM2697 (Passage 6) cells, 5 ng/ml TGFβ2, 16 hours, n=6) is reported as 17 fold and the “short form c-Maf upregulated compared to control” value ([2]; pooled SGTM2697 cells, 5 ng/ml TGFβ2, 16 hours, c-Maf/18S normalized ratio, n=3) is reported as 16 fold.
